For test [1], the system named is bacteria on a surface, such as a person's skin. In words: Nitric oxide dose required to kill bacteria on a surface.
The test system of test [2] is bacteria on skin of hands. Description: Hand exposed to nitric oxide gas in a bag versus DIAL antibacterial soap, zone dilution plating. Type of test: in vivo, human. From the text: An experiment 46 used to determine the anti-microbial effectiveness of nitric oxide is illustrated in FIG. 72. In the experiment, five volunteers were selected 48. From a first hand of each volunteer, a technician using sterile gloves collected 50 a sample. This was accomplished by rubbing the back of the volunteer's hand with a sterile cotton collection swab for ten seconds. The swab was then applied 52 to a nutrient agar petri dish using the five corner or zone dilution method.
The five corner or zone dilution method involves mechanically diluting bacteria on a streak (blood agar) plate by sequentially spreading the bacteria across the plate in each of five zones. As the concentration of bacteria increases so do the number of zones containing bacteria. Bacteria on agar plate become visible as distinct circular colonies. Each colony represents an individual cell which has divided repeatedly to form a patch. The number of bacteria can be estimated by counting the number of patches or how far the bacteria is diluted by streaking it on the agar plate through the five zones.
After the sample was collected 50, the first hand was cleaned 54 using nitric oxide. This was done by placing the hand of the volunteer into a one-gallon plastic freezer bag. The bag was then inflated with nitric oxide through tubing attached to a portable nitric oxide generator. […]

“Also recorded” adds a separate entry of the source.

Regarding `[N]=O` [nitric oxide], the “dose required to kill bacteria on a surface” value in test [1] is listed as not below 320 ppm. Further, the “bacterial colony count compared with washing with antibacterial soap” value in test [2] (1,000 ppm nitric oxide for fifteen minutes versus DIAL antibacterial soap for 2 minutes, five volunteers) is listed as “superior to soaps; also recorded: lower bacterial colony count”. For the same compound, the “colony counts of bacteria exposed to nitric oxide” value in test [2] (experiments by applicant on healthy skin) is reported as “substantial reductions in colony counts”.

For the origin of these results see patent publication US20230044304A1, “Nitric oxide generation, dilution, analysis, and topical application compositions, systems, apparatus and methods” (SYK Technologies LLC, priority 2010, published 2023).
